US9840513B2 (AbbVie S.à.r.l., priority 2015, dated 2017)

What was measured:
[1] = target: T1, F508delCFTR cell surface expression in CFBE41o-F508delCFTR-HRP cells (Homo sapiens, UniProt P13569, DEL508-508); experiment: Cell Surface Expression-Horse Radish Peroxidase (CSE-HRP) Assay; type: cell-based; details: for EC50: CFBE41o-F508delCFTR-HRP cells, 18-24 hours at 33° C., 8-point curve, highest concentration 20 μM; for Maximum % activity (%): maximum at any tested concentration, normalized to on-plate positive control (3 μM)
T1 construct: fused on or other part: Horseradish peroxidase (HRP) reporter inserted in the fourth exofacial (extracellular) loop of CFTR; expression is doxycycline-inducible
T1 sequence (P13569 with tags, fused parts or gaps DEL508-508 limits assumed): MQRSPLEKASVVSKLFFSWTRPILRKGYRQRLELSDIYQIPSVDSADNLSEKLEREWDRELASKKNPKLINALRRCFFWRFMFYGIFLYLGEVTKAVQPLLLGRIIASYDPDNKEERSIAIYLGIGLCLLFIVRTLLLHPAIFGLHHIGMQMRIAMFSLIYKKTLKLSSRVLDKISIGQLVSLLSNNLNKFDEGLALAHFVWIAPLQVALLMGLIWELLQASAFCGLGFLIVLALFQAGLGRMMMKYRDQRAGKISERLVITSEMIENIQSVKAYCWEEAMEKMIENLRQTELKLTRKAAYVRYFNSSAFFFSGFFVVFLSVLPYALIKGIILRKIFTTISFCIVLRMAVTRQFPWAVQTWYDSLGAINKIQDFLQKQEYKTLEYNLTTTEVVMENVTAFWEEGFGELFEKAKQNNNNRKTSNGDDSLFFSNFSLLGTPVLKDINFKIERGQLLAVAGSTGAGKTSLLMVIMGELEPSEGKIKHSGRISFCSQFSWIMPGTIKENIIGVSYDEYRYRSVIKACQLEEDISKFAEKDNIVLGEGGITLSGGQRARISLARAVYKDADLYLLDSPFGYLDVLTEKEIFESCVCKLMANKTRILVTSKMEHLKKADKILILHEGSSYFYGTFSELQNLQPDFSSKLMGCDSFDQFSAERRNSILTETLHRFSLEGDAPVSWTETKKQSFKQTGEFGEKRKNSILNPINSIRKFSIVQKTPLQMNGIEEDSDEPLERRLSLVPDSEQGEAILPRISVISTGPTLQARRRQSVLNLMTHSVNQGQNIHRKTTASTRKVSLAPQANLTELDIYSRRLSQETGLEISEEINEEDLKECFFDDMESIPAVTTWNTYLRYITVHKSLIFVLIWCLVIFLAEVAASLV
T1 sequence (P13569 919-1480 limits assumed, stated change not applied): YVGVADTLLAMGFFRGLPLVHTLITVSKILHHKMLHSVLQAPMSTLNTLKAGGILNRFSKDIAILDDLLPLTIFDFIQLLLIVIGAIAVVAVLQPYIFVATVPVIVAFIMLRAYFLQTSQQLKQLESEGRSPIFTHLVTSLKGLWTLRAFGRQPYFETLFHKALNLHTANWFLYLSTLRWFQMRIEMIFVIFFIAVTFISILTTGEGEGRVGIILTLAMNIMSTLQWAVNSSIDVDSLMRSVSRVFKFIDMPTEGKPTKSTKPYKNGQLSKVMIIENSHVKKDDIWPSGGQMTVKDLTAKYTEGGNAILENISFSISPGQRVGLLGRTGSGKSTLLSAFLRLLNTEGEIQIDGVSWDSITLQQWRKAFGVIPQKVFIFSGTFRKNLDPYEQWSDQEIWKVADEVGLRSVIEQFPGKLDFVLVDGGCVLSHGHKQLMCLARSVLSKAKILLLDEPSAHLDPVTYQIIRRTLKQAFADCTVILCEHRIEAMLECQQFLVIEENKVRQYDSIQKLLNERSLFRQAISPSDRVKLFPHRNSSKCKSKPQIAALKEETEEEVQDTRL
Outline: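 Correctors incubated 18-24 h at 33 °C on doxycycline-induced (0.5 μg/mL, 72 h) CFBE41o-F508delCFTR-HRP cells, 3-fold series from 20 μM. After DPBS washes, luminol luminescence read; activity expressed relative to DMSO and a 3 μM positive control, EC50 fitted from triplicate plates.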

[2] = target: T2, F508delCFTR in primary hBE cells with F508del/F508del CFTR mutation (Homo sapiens, UniProt P13569, DEL508-508); experiment: Transepithelial Clamp Circuit on Human Bronchial Epithelial Cells Conductance Assay (hBE-TECC); type: cell-based; details: for EC50: primary hBE cells F508del/F508del, 18-24 hours at 37° C., equivalent short circuit current, 6 concentrations; for Maximum % activity (%): relative to positive control (3 μM) coupled with control potentiator
T2 construct: cells isolated from CF patients with the homozygous mutation; endogenous in cells; host or cells: primary human bronchial epithelial (hBE) cells from F508del/F508del CF patients
T2 sequence (P13569 with tags, fused parts or gaps DEL508-508): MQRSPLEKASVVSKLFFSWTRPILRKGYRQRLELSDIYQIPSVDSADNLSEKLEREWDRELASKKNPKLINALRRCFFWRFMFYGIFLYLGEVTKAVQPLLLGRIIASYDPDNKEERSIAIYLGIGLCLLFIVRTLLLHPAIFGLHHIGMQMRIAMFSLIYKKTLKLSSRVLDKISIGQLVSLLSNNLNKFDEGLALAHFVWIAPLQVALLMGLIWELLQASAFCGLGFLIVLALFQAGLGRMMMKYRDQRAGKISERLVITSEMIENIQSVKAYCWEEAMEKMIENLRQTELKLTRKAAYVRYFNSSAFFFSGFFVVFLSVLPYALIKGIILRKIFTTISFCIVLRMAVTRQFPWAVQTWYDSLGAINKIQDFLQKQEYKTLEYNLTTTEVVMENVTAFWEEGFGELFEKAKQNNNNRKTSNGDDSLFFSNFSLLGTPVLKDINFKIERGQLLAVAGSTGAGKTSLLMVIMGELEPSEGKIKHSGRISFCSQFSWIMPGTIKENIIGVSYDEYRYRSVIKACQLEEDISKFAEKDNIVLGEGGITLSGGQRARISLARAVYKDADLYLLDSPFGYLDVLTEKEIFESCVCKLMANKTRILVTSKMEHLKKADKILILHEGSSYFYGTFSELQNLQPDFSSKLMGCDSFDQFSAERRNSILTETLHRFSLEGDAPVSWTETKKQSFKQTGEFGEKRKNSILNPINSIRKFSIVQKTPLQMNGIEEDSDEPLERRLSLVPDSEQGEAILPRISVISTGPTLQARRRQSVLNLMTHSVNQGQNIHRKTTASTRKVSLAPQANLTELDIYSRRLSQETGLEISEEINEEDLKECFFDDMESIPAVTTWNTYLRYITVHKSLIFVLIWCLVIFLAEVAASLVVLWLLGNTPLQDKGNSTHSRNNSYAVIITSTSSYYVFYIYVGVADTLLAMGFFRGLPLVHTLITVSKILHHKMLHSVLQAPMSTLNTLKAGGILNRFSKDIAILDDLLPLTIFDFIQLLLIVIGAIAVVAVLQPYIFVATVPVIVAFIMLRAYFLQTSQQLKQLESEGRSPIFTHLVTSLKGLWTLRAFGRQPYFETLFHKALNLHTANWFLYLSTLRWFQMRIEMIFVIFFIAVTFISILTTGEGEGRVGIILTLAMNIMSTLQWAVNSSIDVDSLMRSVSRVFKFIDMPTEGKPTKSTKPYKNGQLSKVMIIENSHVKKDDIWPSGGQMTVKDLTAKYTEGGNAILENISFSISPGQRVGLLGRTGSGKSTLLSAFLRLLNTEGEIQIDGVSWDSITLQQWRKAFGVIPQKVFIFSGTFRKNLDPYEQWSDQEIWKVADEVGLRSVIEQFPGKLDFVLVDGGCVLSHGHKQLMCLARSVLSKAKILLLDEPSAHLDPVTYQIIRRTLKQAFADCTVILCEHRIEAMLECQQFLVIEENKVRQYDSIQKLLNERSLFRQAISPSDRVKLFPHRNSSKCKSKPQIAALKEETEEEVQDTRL
Outline: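 Primary F508del/F508del hBE cells grown 35 days at air-liquid interface, treated basolaterally with correctors 18-24 h at 37° C. Ieq (Vt/Rt) at 36.5° C, pH 7.4, after benzamil, forskolin 10 μM, control potentiator, bumetanide; 6 concentrations normalized to DMSO and 3 μM positive-control corrector, EC50 by 4-parameter fit.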

EC50 [1] | Maximum % activity (%) [1] | EC50 [2] | Maximum % activity (%) [2] | SMILES
0.06 µM | 157% | 0.021 µM | 104% | C[C@]1(C(=O)N[C@@H]2C[C@H]([C@H]3CC[C@H](C(=O)NCCO)CC3)Oc3cc(OC(F)(F)F)ccc32)COc2cc3c(cc21)OC(F)(F)O3 [Example 261, (7R)-2,2-difluoro-N-[(2R,4R)-2-{trans-4-[(2-hydroxyethyl)carbamoyl]cyclohexyl}-7-(trifluoromethoxy)-3,4-dihydro-2H-1-benzopyran-4-yl]-7-methyl-6,7-dihydro-2H-furo[2,3-f][1,3]benzodioxole-7-carboxamide]
0.07 µM | 167% | 0.004 µM | 118% | CCCN(CCO)C(=O)[C@H]1CC[C@H]([C@H]2C[C@@H](NC(=O)[C@@]3(C)COc4cc5c(cc43)OC(F)(F)O5)c3ccc(OC(F)(F)F)cc3O2)CC1 [Example 263, (7R)-2,2-difluoro-N-[(2R,4R)-2-{trans-4-[(2-hydroxyethyl)(propyl)carbamoyl]cyclohexyl}-7-(trifluoromethoxy)-3,4-dihydro-2H-1-benzopyran-4-yl]-7-methyl-6,7-dihydro-2H-furo[2,3-f][1,3]benzodioxole-7-carboxamide]
0.47 µM | 154% | 0.117 µM | 134% | COc1ccc2c(c1)O[C@@H]([C@H]1CC[C@H](C(=O)N3C[C@H](O)[C@@H](O)C3)CC1)C[C@H]2NC(=O)[C@@]1(C)COc2cc3c(cc21)OC(F)(F)O3 [Example 281, (7R)—N-[(2R,4R)-2-{trans-4-[(3S,4S)-3,4-dihydroxypyrrolidine-1-carbonyl]cyclohexyl}-7-methoxy-3,4-dihydro-2H-1-benzopyran-4-yl]-2,2-difluoro-7-methyl-6,7-dihydro-2H-furo[2,3-f][1,3]benzodioxole-7-carboxamide]
1.86 µM | 135% | 0.282 µM | 100% | C[C@]1(C(=O)N[C@@H]2C[C@H](C3(C(=O)N4C[C@H](O)[C@@H](O)C4)CC3)Oc3cc(OC(F)(F)F)ccc32)COc2cc3c(cc21)OC(F)(F)O3 [Example 282, (7R)—N-[(2R,4R)-2-{1-[(3S,4S)-3,4-dihydroxypyrrolidine-1-carbonyl]cyclopropyl}-7-(trifluoromethoxy)-3,4-dihydro-2H-1-benzopyran-4-yl]-2,2-difluoro-7-methyl-6,7-dihydro-2H-furo[2,3-f][1,3]benzodioxole-7-carboxamide]
